Earlier results in PMC9775153, “Portability of a Small-Molecule Binding Site between Disordered Proteins” (Biomolecules, 2022).

Columns and labels:
Myc402–412 peptide = biological target: T1, Myc402–412 peptide (Homo sapiens, UniProt P01106); set-up: method as in PMID 19022175; settings: 20 µM peptide; cited from earlier work
T1 construct: purchased Genscript; host or cells: solid phase peptide synthesis

Max = tested on: Max; set-up: method as in PMID 13679853; settings: cited from earlier work
Myc-Max dimerization = tested on: Myc-Max dimerization; set-up: method as in PMID 13679853; settings: cited from earlier work

## CCc1ccc(/C=C2/SC(=S)NC2=O)cc1 [1RH]
Myc402–412 peptide
  effect on peptide secondary structure (CD): induced a substantial shift in the peptide’s secondary structure
Max
  interaction with Max: not to interact
Myc-Max dimerization
  effect on Myc-Max dimerization: disrupted Myc-Max dimerization
